In patent US11833144B2, “Treating autoimmune disease” (Mayo Foundation for Medical Education and Research, priority 2020, dated 2023):

Columns and labels:
[1] = system: activated mouse B cells; test: Transmission electron microscopy of autophagosomes in activated mouse B cells; assay type: cell-based; conditions: SSI-4 treated B cells
Description: Cells were fixed in Trumps fixative (pH 7.2) at 4° C. overnight, spun down and the supernatant removed. They were re-suspended in 2% agarose which was allowed to cool and solidify. The cells in agarose were then post-fixed in 1% OsO4, dehydrated through a graded series of ethanols and embedded in Spurr resin. One hundred nm […] ultra-thin sections were mounted on 200-mesh copper grids, post-stained with lead citrate, and observed under a JEOL JEM-1400 transmission electron microscope at 80 kV.

[2] = system: GFP-LC3; test: Flow cytometry of GFP-LC3 in activated B cells from GFP-LC3 reporter mouse; assay type: cell-based; conditions: SSI-4 ex vivo
Description: For analysis of surface markers, cells were stained in PBS containing 1% (w/v) bovine serum albumin on ice for 30 minutes, with anti-IgG1 (RMG1-1, Biolegend), anti-CD19 (ID3, Biolegend) anti-B220 (RA3-6B2, Biolegend), anti-CD4 (GK1.5, Biolegend), anti-CD8 (53-6.7, Biolegend), anti-CD25 (PC16, Biolegend), anti-GL7 (GL-7, Biolegend), anti-CD95 (Jo2, BD Biosciences), anti-CD138 (281-2, Biolegend), anti-IgD (11-26c.2a, Biolegend), anti-PD-1 (J43, ThermoFisher), anti-IgM (II/41, ThermoFisher). Antigen specific GC response was detected with tetramer NP-phycoerythrin conjugated with PE (Biosearch Technologies). CXCR5 was stained with biotinylated anti-CXCR5 (2G8) followed by staining with streptavidin-conjugated PE (both from BD Biosciences). Cell viability was assessed using the Fixable Dye Ghost 510 (Tonbo Bioscience) or Annexin V cell apoptosis kit with 7-AAD (ThermoFisher) following the manufacturer's protocol. Phosflow staining for phospho-S6 (S235/236) was performed using Phosflow Fix/Perm kit (BD Biosciences). Mitochondrial potential was measured by staining with 20 nM TMRM (ThermoFisher) following manufacturer's instructions. Flow cytometry was performed on the LSR II, LSR Fortessa (BD Biosciences) or Attune NxT (ThermoFisher) cytometers, and analysis was performed using FlowJo software (Tree Star).

**Q.** What does the source list for `CNC(=O)c1ccnc(NC(=O)N2CCC(Oc3ccccc3Cl)CC2)c1` [SSI-4, 2-{[4-(2-Chlorophenoxy)piperidine-1-carbonyl]amino}-N-methylpyridine-4-carboxamide]?
**A.** autophagosome structures by transmission electron microscopy [1]: increased structures with double layer membrane; GFP-LC3 expression (MFI) [2]: higher LC3 expression
